Earlier results, collected in US20060172402A1, “Production of vanillin in microbial cells” (priority 2002, published 2006).

System: tobacco class II COMT
Settings: Maury et al., 1999

| activity of the enzyme against the substrate | Structure (SMILES) |
| --- | --- |
| did have activity | O=Cc1ccc(O)c(O)c1 [3,4-Dihydioxybenzaldehyde, 3,4-dihydroxybenzaldehyde] |
| no activity | COc1cc(/C=C/C(=O)O)cc(O)c1O [5-OH-Ferulic acid] |
| no activity | O=C(O)/C=C/c1ccc(O)c(O)c1 [Caffeic acid] |
